Measured values published in US20060189613A1, “Sulphonamide Compounds that Modulate Chemokine Receptor Activity (CCR4)” (priority 2003, published 2006).

| SMILES | melting point |
| --- | --- |
| COc1ccnnc1NS(=O)(=O)c1cccc(Cl)c1Cl [Example 1, 2,3-Dichloro-N-[4-methoxy-3-pyridazinyl]benzenesulphonamide] | 210 to 211 °C |
| COc1cc(Cl)nnc1NS(=O)(=O)c1cccc(Cl)c1Cl [Example 2, 2,3-Dichloro-N-[6-chloro-4-methoxy-3-pyridazinyl]benzenesulphonamide] | 226 to 227 °C |
| O=S(=O)(Nc1nnc(Cl)cc1OCc1cccnc1)c1cccc(Cl)c1Cl [Example 3, 2,3-Dichloro-N-[6-chloro-4-(3-pyridinylmethoxy)-3-pyridazinyl]benzenesulphonamide] | 216 to 217 °C |
| COc1ncc(NS(=O)(=O)c2cccc(Cl)c2Cl)c(OC)n1 [Example 5, 2,3-Dichloro-N-[2,4-dimethoxy-5-pyrimidinyl]benzenesulphonamide] | 124 to 126 °C |
| COc1ncncc1NS(=O)(=O)c1cccc(Cl)c1Cl [Example 6, 2,3-Dichloro-N-[4-methoxy-5-pyrimidinyl]benzenesulphonamide] | 204 to 211 °C |
| COc1cnc(Cl)nc1NS(=O)(=O)c1cccc(Cl)c1Cl [Example 7, 2,3-Dichloro-N-[2-chloro-5-methoxy-4-pyrimidinyl]benzenesulphonamide] | 244 to 245 °C |
| COc1cncnc1NS(=O)(=O)c1cccc(Cl)c1Cl [Example 8, 2,3-Dichloro-N-[5-methoxy-4-pyrimidinyl]benzenesulphonamide] | 278 to 279 °C |
| COc1cnc(C(F)(F)F)nc1NS(=O)(=O)c1cccc(Cl)c1Cl [Example 10, 2,3-Dichloro-N-[5-methoxy-2-trifluoromethyl-4-pyrimidinyl]benzenesulphonamide] | 190 to 191 °C |
| COc1cnc(Cl)nc1NS(=O)(=O)c1ccc(Cl)s1 [Example 11, 5-Chloro-thiophene-2-sulphonic acid, [2-chloro-5-methoxy-4-pyrimidinyl]amide] | 201 to 202 °C |
| COc1cnc(C)nc1NS(=O)(=O)c1ccc(Cl)s1 [Example 12, 5-Chloro-thiophene-2-sulphonic acid, [5-methoxy-2-methyl-4-pyrimidinyl]amide] | 249 to 250 °C |
| COc1cc(Cl)nnc1NS(=O)(=O)c1ccc(Cl)s1 [Example 13, 5-Chloro-N-[6-chloro-4-methoxy-3-pyridazinyl]thiophene-2-sulphonamide] | 120 to 122 °C |
